From patent publication US20240023806A1, “METHOD FOR SELF-DIAGNOSIS AND METHOD FOR SELF-TREATMENT OF POSTERIOR SEGMENT EYE DISEASE” (priority 2022, published 2024)

Columns and labels:
[1] = test system: inflammatory vitreous opacity due to endotoxin-induced uveitis; test: Endotoxin-induced uveitis (EIU) rabbit model: vitreous humor protein measurement; format: in vivo; conditions: day 2 after intravitreal LPS 100 ng; DEX solution 100 μg/100 μL injected into the choroid through the tube; 4 eyes; p<0.05 vs control (LPS only)
Text: (§1) In order to investigate the effectiveness of the method for self-treatment of posterior segment eye disease according to an aspect of the present invention, whether the injection of dexamethasone (DEX) into the choroid through a tube suppresses inflammatory vitreous opacity due to endotoxin-induced uveitis was examined in a rabbit model.
After the tube insertion, endotoxin-induced uveitis (HU) was induced in 8 rabbits (8 eyes) by lipopolysaccharide (LPS) derived from Escherichia coli (manufactured by Sigma-Aldrich Co. LLC). 100 ng of LPS solution was injected into the vitreous body using a 27G needle at a 12 o'clock position, 3 mm posterior to the corneal limbus. […] Since maximal inflammatory symptoms were seen 2 days after injection, inflammatory vitreous opacity was evaluated 2 days after injection by ophthalmological observation and vitreous humor protein measurement. The amount of DEX injected was entered into the application and the amount of DEX was determined on the computer. The data on the quantity of DEX was then transmitted to a wireless injector (“Tofuty”, manufactured by ICOMES LAB Co., Ltd.). […]
For protein measurements, four eyes in each group were used on day 2 after procedure. […] The protein content of vitreous humor was determined using a Bio-Rad assay kit with bovine serum albumin as a standard-dilution reference curve. […]

[2] = test system: inflammatory vitreous opacity due to endotoxin-induced uveitis; test: Endotoxin-induced uveitis (EIU) rabbit model: clinical grading of inflammatory vitreous opacity after DEX injection into the choroid through a tube; format: in vivo; conditions: day 2 after intravitreal LPS 100 ng; DEX solution 100 μg/100 μL injected into the choroid through the tube; 4 eyes; p<0.05 vs control (LPS only)
Description: as §1
All experiments were conducted in accordance with ARVO Statement for the Use of Animals in Ophthalmic and Vision Research and the Guidelines for Experimental Animals at Iwate Medical University. Three-month-old Japanese white rabbits (purchased from KITAYAMALABES CO., LTD.) weighing 2 to 2.5 kg were used. […]
After the tube insertion, endotoxin-induced uveitis (HU) was induced in 8 rabbits (8 eyes) by lipopolysaccharide (LPS) derived from Escherichia coli (manufactured by Sigma-Aldrich Co. LLC). […] Since maximal inflammatory symptoms were seen 2 days after injection, inflammatory vitreous opacity was evaluated 2 days after injection by ophthalmological observation and vitreous humor protein measurement. The amount of DEX injected was entered into the application and the amount of DEX was determined on the computer. The data on the quantity of DEX was then transmitted to a wireless injector (“Tofuty”, manufactured by ICOMES LAB Co., Ltd.). […]

## C[C@@H]1C[C@H]2[C@@H]3CCC4=CC(=O)C=C[C@]4(C)[C@@]3(F)[C@@H](O)C[C@]2(C)[C@@]1(O)C(=O)CO [DEX, dexamethasone]
[1]
  Protein concentration in vitreous humor: 20.5 ± 15.0 mg/mL
[2]
  Clinical grading of vitreous opacity (grade 0 to 4): 0.75±0.96
